pIC50: −log10 of the molar value.
Columns and labels:
[1] = target: T1, Tyrosyl-DNA phosphodiesterase 2 (Homo sapiens, UniProt O95551); assay: ChEBML_1689437
T1 sequence (O95551 whole entry): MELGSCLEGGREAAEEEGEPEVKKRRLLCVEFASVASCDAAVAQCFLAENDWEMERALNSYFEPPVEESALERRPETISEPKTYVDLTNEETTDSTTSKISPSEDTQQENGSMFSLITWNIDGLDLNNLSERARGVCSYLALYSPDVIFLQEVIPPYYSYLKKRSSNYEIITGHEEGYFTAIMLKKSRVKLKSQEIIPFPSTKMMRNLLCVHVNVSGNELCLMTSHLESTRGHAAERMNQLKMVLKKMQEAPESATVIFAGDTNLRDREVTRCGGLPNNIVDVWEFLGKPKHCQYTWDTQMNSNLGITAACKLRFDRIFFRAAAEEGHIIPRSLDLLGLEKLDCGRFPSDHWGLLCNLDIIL
Procedure: Inhibition of recombinant human TDP2 using 3'-labeled alpha-[32P]-cordycepin as substrate after 15 mins

[2] = target: Tyrosyl-DNA phosphodiesterase 1 (Homo sapiens, UniProt Q9NUW8); assay: ChEBML_1689436
Sequence of Tyrosyl-DNA phosphodiesterase 1 (Q9NUW8 whole entry): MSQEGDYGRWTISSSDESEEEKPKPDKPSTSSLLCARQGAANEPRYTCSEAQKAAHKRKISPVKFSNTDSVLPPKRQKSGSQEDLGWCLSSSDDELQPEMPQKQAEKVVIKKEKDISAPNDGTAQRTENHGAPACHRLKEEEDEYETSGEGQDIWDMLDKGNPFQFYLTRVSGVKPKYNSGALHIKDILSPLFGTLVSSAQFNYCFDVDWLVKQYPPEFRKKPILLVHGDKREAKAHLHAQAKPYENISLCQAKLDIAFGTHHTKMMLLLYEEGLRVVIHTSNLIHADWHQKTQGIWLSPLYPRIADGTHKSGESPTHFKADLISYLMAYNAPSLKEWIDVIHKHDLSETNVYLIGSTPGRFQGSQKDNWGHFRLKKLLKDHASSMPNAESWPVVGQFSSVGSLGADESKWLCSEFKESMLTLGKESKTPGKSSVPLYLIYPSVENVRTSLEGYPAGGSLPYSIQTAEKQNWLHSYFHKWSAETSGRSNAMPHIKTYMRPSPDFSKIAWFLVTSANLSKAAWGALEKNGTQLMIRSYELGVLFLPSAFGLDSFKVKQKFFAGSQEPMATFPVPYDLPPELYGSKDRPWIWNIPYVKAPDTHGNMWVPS
Procedure: Inhibition of recombinant TDP1 (unknown origin) using 5'-[32P]-labeled single stranded DNA containing a 3'-phosphotyrosine as substrate after 15 mins by PAGE analysis

Structure (SMILES): CC[C@@]1(O)C(=O)OCc2c1cc1n(c2=O)Cc2cc3ccccc3nc2-1 [4-Ethyl-4-hydroxy-1,12-dihydro-4H-2-oxa-6,12a-diaza-dibenzo[b,h]fluorene-3,13-dione (Camptothecin)]
- pIC50 [1]: < 3.95
- pIC50 [2]: < 3.95

Reference: BindingDB's records for doi:10.1021/acs.jmedchem.6b01870 (Purdue University, 2017)
